Key:
SOD1^G93A mice [1] = experiment: Disease onset (neuroscore NS2) and survival (NS4) in SOD1^G93A mice; type: in vivo, mouse; settings: for Effect on disease onset / Effect on survival: male SOD1^G93A mice, 10 mg/kg or 30 mg/kg daily oral gavage, vs vehicle
Source text: The SOD1^G93A transgenic mouse model of ALS has been the most widely used animal model since the 1990s. The mouse was genetically engineered to overexpress a mutant form of the human Cu/Zn superoxide dismutase 1 (SOD1) gene harboring an ALS-associated glycine to alanine mutation at amino acid position 93 (G93A). These mice replicate many of the features of ALS, such as motor neuron loss, muscle wasting, progressive paralysis and decreased survival. Additionally, the SOD1^G93A mouse model has shown to be ideal for drug screening because of early onset of the disease and moderate progression.
The mice were treated with vehicle, 10 mg/kg or 30 mg/kg CuATSM or one of the derivatives: Compound 25 (2% DMSO, 10% KolliphorHS15), Compound 9 (0.5% methylcellulose), Compound 24 (0.5% methylcellulose, 0.4% TWEEN-80), and Compound 37 (0.5% methylcellulose, 0.4% TWEEN-80). Measurements were taken to assess compound muscle action potential (CMAP), neuroscore, and disease onset and survival.
Neuroscore is a neurological scoring system based on visual observations of the hindlimb designed to assess the neuromuscular function of SOD1^G93A mice. The hindlimb is observed due to this being the earliest reported neurological sign of disease in SOD1^G93A mice. This method provides an unbiased assessment of onset of paresis (slight or partial paralysis) and the progression and severity of the paralysis. This method has also proven to be sensitive enough to identify drug-induced changes in disease progression. Neuroscore is assigned on a 0-4 scale corresponding to the following observations: NS0=the hindlimbs present with a normal splay; NS1=hindlimbs present with an abnormal splay; NS2=the hindlimbs show signs of paresis or are partially paralyzed; NS3=rigid paralysis in the hindlimbs; NS4=the mouse is unable to right itself up. These measurements were used in the current study to assess disease onset.
The onset of disease in the SOD1^G93A mice typically happens around age day 90-100, with mice eventually succumbing to the disease around age day 120-130. For comparison, a wild-type mouse of the same background may live up to 2 years. The onset of the disease in the current study was defined as the time to observe a neuroscore of NS2 in the mouse, while a neuroscore of a NS4 was considered to be the humane end-point. Reported p-values to illustrate statistical significant represent a log-rank test.

SOD1^G93A mice [2] = experiment: Compound muscle action potential (CMAP) in SOD1^G93A mice; type: in vivo, mouse
[3] = system: transgenic mouse models of ALS; settings: transgenic mice expressing human SOD1 with familial ALS mutations; cited from earlier work
[4] = male SOD1^G93A mice, 10 mg/kg or 30 mg/kg daily, four weeks, vs vehicle

In the case of `CN/C1=N/N=C(C)/C(Cc2cccnc2)=N/N=C(/NC)[S][Cu][S]1` [Compound 9], the “Effect on disease onset” value (SOD1^G93A mice [1]) is reported as “did not significantly affect” and the Effect on survival (SOD1^G93A mice [1]) is reported as “did not significantly affect”.
With `CN/C1=N/N=C(c2ccco2)/C(C)=N/N=C(/NC)[S][Cu][S]1` [Compound 25] the “Survival efficacy study (onset of neurological disease, survival, body weight, neurological score)” value (SOD1^G93A mice [1]; litter-matched, gender-balanced SOD1^G93A mice, chronic daily 30 mg/kg, vs control) was “displayed benefits”, the “CMAP as a percentage of baseline” value (SOD1^G93A mice [2]; SOD1^G93A mice, 10 mg/kg or 30 mg/kg daily oral gavage, 5 weeks, vs vehicle) was “significantly less change than the mice receiving vehicle” and the “CMAP change from baseline” value (SOD1^G93A mice [2]; SOD1^G93A mice, 10 mg/kg or 30 mg/kg daily oral gavage, five weeks, vs control) was “significant change in CMAP measurements from baseline compared to control mice”.
For `CN=C([S-])N/N=C(C)/C(C)=N/NC([S-])=NC.[Cu+2]` [CuATSM, reference compound], the “Protection in transgenic mouse models of ALS” value [3] is given as “protective”, the “CMAP change from baseline” value (SOD1^G93A mice [2]; [4]) is given as “no differences” and the “percent of baseline CMAP” value (SOD1^G93A mice [2]; [4]) is given as “no differences”.
In the case of `CCN/C1=N/N=C(c2ccc(CN3CCN(C)CC3)o2)/C(C)=N/N=C(/NCC)[S][Cu][S]1` [Compound 37], the “Effect on disease onset” value (SOD1^G93A mice [1]) is reported as “neither dose significantly affected”, the Effect on survival (SOD1^G93A mice [1]) is reported as “neither dose significantly affected” and the CMAP decline (SOD1^G93A mice [2]; male SOD1^G93A mice, 10 mg/kg or 30 mg/kg daily oral gavage, four weeks) is reported as “did not attenuate the CMAP decline”.
In the case of `CCN/C1=N/N=C(c2ccc(CN3CCOCC3)o2)/C(C)=N/N=C(/NCC)[S][Cu][S]1` [Compound 24], the “CMAP values (change from baseline, % of baseline)” value (SOD1^G93A mice [2]; male SOD1^G93A mice, 10 mg/kg or 30 mg/kg daily oral gavage, five weeks, vs control) is reported as “did not significantly improve CMAP values”.
